We go through ten compounds from patent US5075308A, “Method for treating urinary obstruction” (Hitachi Chemical Co., Ltd., priority 1989, dated 1991).

The test system of test [1] is α1-adrenoceptor (thoracic aorta). Description: α1-adrenoceptor-blocking activity in rabbit thoracic aorta strips (noradrenaline contraction, Schild plot). Conditions: rabbit thoracic aorta helical strips, endothelium denuded; antagonism of noradrenaline contraction; mean (± standard deviation). On the procedure: (§1) Male albino rabbits weighing 2.2-2.5 kg were intravenously given pentobarbital (Nembutal® manufactured by Abbott) at a dose of 35 mg/kg body weight and sacrificed by exsanguination. The thoracic aorta and urinary bladder were rapidly excised and placed in modified Krebs solution. After removal of fat and unnecessary connective tissue, helical strips (3×15 mm in size) of the thoracic aorta and longitudinal strips (3×15 mm in size) of trigonum vesicae were prepared and used as specimen. The helical strips were carefully denuded of endothelium attached thereto in order to avoid any effect of the endothelium-derived vascular relaxing factors.
(§2) The preparations were vertically mounted in an organ bath filled with 20 ml of the modified Krebs solution (aerated with a gas mixture of 95 vol % of oxgen and 5 vol % of carbon dioxide and kept at 37° C.). The other end of each strip was attached to a transducer for tension measurement (the model TB-6llT manufactured by Nihon Kohden Kogyo K.K.). Changes in tension were recorded on a pen-writing oscillograph (the model Wi-68lG manufactured by Nihon Kohden Kogyo K.K.). Composition of the modified Krebs solution used herein was as follows: NaCl 115.0, KCl 4.7, MgSO4.7H2 O 1.2, CaCl2.2H2 O 2.5, KH2 PO4 1.2, NaHCO3 25.0 and glucose 10.0 (concentration in mM). The solution contained 10^-6 M propranolol, a […] (manufactured by Sigma). The loading tension was adjusted to attain a weight of 2 g for aorta and a weight of 1 g for trigone. The strips were allowed to equilibrate for at least 60 min. before initiation of the experiment, and during this period the modified Krebs solution in the organ bath was replaced every 20 min.
(§3) First, noradrenaline (manufactured by Sigma, 10^-6 -10^-4 M) was cumulatively added to each specimen to prepare a concentration-response curve to noradrenaline (to determine the 50% effective concentration ED50). […] The results were analyzed by Schild plotting to determine pA2 ([…] of concentration of the blocking agent necessary for parallel shift of the 50% contraction caused by noradrenaline to a concentration two fold as high).

The target of test [2] is T1, α1-adrenoceptor (trigonum vesicae) (Oryctolagus cuniculus, UniProt O02824).
T1 construct: longitudinal strips (3×15 mm in size) of trigonum vesicae; from tissue; host or cells: rabbit urinary bladder, longitudinal strips of trigonum vesicae
T1 sequence (O02824 1-466): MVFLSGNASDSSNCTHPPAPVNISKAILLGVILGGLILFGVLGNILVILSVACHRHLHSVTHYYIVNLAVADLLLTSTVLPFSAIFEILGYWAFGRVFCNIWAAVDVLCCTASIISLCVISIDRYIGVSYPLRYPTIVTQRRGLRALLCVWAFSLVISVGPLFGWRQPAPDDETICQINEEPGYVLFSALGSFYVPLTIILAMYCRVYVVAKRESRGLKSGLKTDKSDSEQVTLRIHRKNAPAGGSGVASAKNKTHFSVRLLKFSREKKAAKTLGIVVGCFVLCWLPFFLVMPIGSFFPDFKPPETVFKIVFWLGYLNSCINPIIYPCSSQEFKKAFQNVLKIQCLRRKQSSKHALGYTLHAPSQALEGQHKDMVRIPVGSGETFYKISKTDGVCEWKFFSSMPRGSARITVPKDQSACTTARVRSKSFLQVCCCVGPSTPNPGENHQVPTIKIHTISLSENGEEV
Description: α1-adrenoceptor-blocking activity in rabbit trigonum vesicae strips (noradrenaline contraction, Schild plot). Conditions: rabbit trigonum vesicae longitudinal strips; antagonism of noradrenaline contraction; mean (± standard deviation); read-out: pA2, trigonum vesicae (converted). The procedure:
as §1, §2, §3

Test [3] relates to α1-adrenoceptor (trigonum vesicae). Described as above. Conditions: for Activity ratio: ratio of pA2 (calculated as concentration) with trigonum vesicae to pA2 with thoracic aorta. The procedure: as §1, §2, §3

For `COc1ccccc1N1CCN(CCNc2nc(C)c(C(C)=O)c(C)n2)CC1` [Compound 1, 2-[2-(4-(2-methoxyphenyl)-l-piperazinyl)ethyl]amino-5-acetyl-4,6-dimethylpyrimidine], in test [1], the “pA2, thoracic aorta” value stood at 7.35. Also, in test [2], the Kb was 8.51 nM. For the same compound, in test [3], the Activity ratio is reported as 5.25.
Regarding `CCOC(=O)c1c(C)nc(NCCCCN2CCN(c3ccccc3OC)CC2)nc1C` [Compound 2, 2-[4-(4-(2-methoxyphenyl)-l-piperazinyl)butyl]amino-5-ethoxycarbonyl-4,6-dimethylpyrimidine], the “pA2, thoracic aorta” value in test [1] is given as 7.47. Also, the Kb in test [2] was 5.01 nM. Moreover, the Activity ratio in test [3] was 6.76.
For `COc1ccccc1N1CCN(CCNc2nc(C)cc(C)n2)CC1` [Compound 3, 2-[2-(4-(2-methoxyphenyl)-l-piperazinyl)ethyl]amino-4,6-dimethylpyrimidine] the same measures were 7.67, 7.08 nM and 3.02.
In the same order, the values of `CCOC(=O)c1c(C)nc(NCCCN2CCN(c3ccccc3OC)CC2)nc1C` [Compound 4, 2-[3-(4-(2-methoxyphenyl)-l-piperazinyl)propyl]amino-5-ethoxycarbonyl-4,6-dimethylpyrimidine] are 7.65, 5.25 nM and 4.27.
In the same order, the values of `COc1ccccc1N1CCN(CCNc2nccc(Cl)n2)CC1` [Compound 5, 2-[2-(4-(2-methoxyphenyl)-l-piperazinyl)ethyl]amino-4-chloropyrimidine] are 7.83, 5.25 nM and 2.82.
Regarding `COc1ccccc1N1CCN(CCNc2ncccn2)CC1` [Compound 6, 2-[2-(4-(2-methoxyphenyl)-l-piperazinyl)ethyl]amino-pyrimidine], the “pA2, thoracic aorta” value in test [1] is given as 7.74. In addition, the Kb in test [2] was 7.94 nM. Also, in test [3], the Activity ratio was 2.29.
Take `CCOC(=O)c1c(C)nc(NCCN2CCN(c3ccccc3OC)CC2)nc1C` [Compound 7, 2-[2-(4-(2-methoxyphenyl)-l-piperazinyl)ethyl]amino-5-ethoxycarbonyl-4,6-dimethylpyrimidine]: in test [1], the “pA2, thoracic aorta” value was found to be 7.92. Also, in test [2], the Kb is 5.5 nM. Moreover, the Activity ratio in test [3] was 2.19.
In the same order, the values of `COc1ccnc(NCCN2CCN(c3ccccc3OC)CC2)n1` [Compound 8, 2-[2-(4-(2-methoxyphenyl)-l-piperazinyl)ethyl]amino-4-methoxypyrimidine] are 7.92, 6.46 nM and 1.86.
In the same order, the values of `COc1ccnc(NCCCCN2CCN(c3ccccc3OC)CC2)n1` [Compound 9, 2-[4-(4-(2-methoxyphenyl)-l-piperazinyl)butyl]amino-4-methoxypyrimidine] are 7.96, 6.17 nM and 1.78.
Consider `COc1cc2nc(N3CCN(C(=O)c4ccco4)CC3)nc(N)c2cc1OC` [Prazosin, reference compound], for which, in test [1], the “pA2, thoracic aorta” value worked out at 8.55. Further, the “pA2 comparison trigonum vesicae vs thoracic aorta (in words)” value in test [3] was “larger pA2 in the thoracic aorta than in the trigonum vesicae”.
